Data taken from publication PMC6278315, “Microwave-Assisted Expeditious Synthesis of 2-Alkyl-2-(N-arylsulfonylindol-3-yl)-3-N-acyl-5-aryl-1,3,4-oxadiazolines Catalyzed by HgCl2 under Solvent-Free Conditions as Potential Anti-HIV-1 Agents” (Molecules, 2018).
Converted amounts (≈) assume the structure as drawn.

Columns and labels:
[1] = MTT-based cytotoxicity assay; settings: human, C8166 cells, concentration causing 50% reduction in total C8166 cell number, means of two separate experiments, read-out: CC50 (50% cytotoxic concentration)
Experimental: (§1) Cell line (C8166) and the laboratory-derived virus (HIV-1IIIB) were obtained from MRC, AIDS Reagent Project, London, UK. C8166 was maintainedin RPMI-1640 supplemented with 10% heat-inactivated newborn calf serum (Gibco, Grand Island, NY, USA). The cells used in all experiments were in log-phase growth. The 50% HIV-1IIIB tissue culture infectious dose (TCID50) in C8166 cells was determined and calculated by the Reed and Muench method. Virus stocks were stored in small aliquots at −70 °C.
Cellular toxicity of 2-alkyl-2-(N-arylsulfonylindol-3-yl)-3-N-acyl-5-aryl-1,3,4-oxadiazolines 3s–r′ on C8166 cells was assessed by MTT method as described previously. Briefly, cells were seeded on 96-well microtiter plate in the absence or presence of various concentrations of 2-alkyl-2-(N-arylsulfonylindol-3-yl)-3-N-acyl-5-aryl-1,3,4-oxadiazolines in triplicate and incubated at 37 °C in a humid atmosphere of 5% CO2 for 3 day. The supernatants were discarded and MTT reagent (5 mg/mL in PBS) was added to each wells, then incubated for 4 h, 100 μL of 50% N,N-dimethylformamide (DMF)-20% SDS was added. After the formazan was dissolved completely, the plates were read on a Bio-TekElx800 ELISA reader (BioTek, Winooski, VT, USA) at 595/630 nm. The cytotoxic concentration that caused the reduction of viable C8166 cells by 50% (CC50) was determined from dose–response curve.

HIV-1IIIB = assay: Syncytia assay (anti-HIV-1 activity); type: cell-based; settings: Human immunodeficiency virus 1, 72 h; concentration reducing syncytia formation by 50%; C8166 cells infected with HIV-1IIIB, M.O.I 0.06, 3 days; means of two separate experiments; read-out: EC50 (50% effective concentration)
Experimental: as §1
In the presence of 100 μL various concentrations of 2-alkyl-2-(N-arylsulfonylindol-3-yl)-3-N-acyl-5-aryl-1,3,4-oxadiazolines, C8166 cells (4 × 10^5/mL) were infected with virus HIV-1IIIB at a multiplicity of infection (M.O.I) of 0.06. The final volume per well was 200 μL. Control assays were performed without the testing compounds in HIV-1IIIB infected and uninfected cultures. After 3 days of culture, the cytopathic effect (CPE) was measured by counting the number of syncytia. Percentage inhibition of syncytia formation was calculated and 50% effective concentration (EC50) was calculated. AZT (Sigma-Aldrich, St. Louis, MO, USA) was used as a positive control. Therapeutic index (TI) = CC50/EC50.

SMILES | CC50 at 3 day [1] [µg/mL] | EC50 (HIV-1IIIB) [µg/mL] | melting point [°C]
Cc1cn([C@H]2C[C@H](N=[N+]=[N-])[C@@H](CO)O2)c(=O)[nH]c1=O [AZT, 3′-azido-3′-deoxythymidine, reference compound] | 1370 (≈ 5140 µM) | 0.00199 (≈ 0.00745 µM) | 
CC(=O)N1N=C(c2ccccc2)OC1(C)c1cn(S(=O)(=O)c2ccccc2)c2ccc(C#N)cc12 (stereo not drawn) [3z, 2-Methyl-2-(N-benzenesulfonyl-5-cyanoindol-3-yl)-3-N-acetyl-5-phenyl-1,3,4-oxadiazolines] | 53 (≈ 109 µM) | 17.6 (≈ 36.3 µM) | 208 to 210
CCC(=O)N1N=C(c2ccccc2)OC1c1cn(S(=O)(=O)c2ccc(C)cc2)c2ccc(C#N)cc12 (stereo not drawn) [3r′] | 98.3 (≈ 197 µM) | 4.01 (≈ 8.04 µM) | 
CC(=O)N1N=C(c2ccccc2)OC1(C)c1cn(S(=O)(=O)c2ccccc2)c2cc(C)ccc12 (stereo not drawn) [3y, 2-Methyl-2-(N-benzenesulfonyl-6-methylindol-3-yl)-3-N-acetyl-5-phenyl-1,3,4-oxadiazolines] | > 200 | 6.12 (≈ 12.9 µM) | 142 to 144
CCC1(c2cn(S(=O)(=O)c3ccccc3)c3ccccc23)OC(c2ccccc2)=NN1C(C)=O (stereo not drawn) [3d′, 2-Ethyl-2-(N-benzenesulfonylindol-3-yl)-3-N-acetyl-5-phenyl-1,3,4-oxadiazolines] | 105 (≈ 222 µM) | 20.3 (≈ 42.9 µM) | 224 to 226
CC(=O)N1N=C(c2ccccc2)OC1c1cn(S(=O)(=O)c2ccc(C)cc2)c2ccccc12 (stereo not drawn) [3e′] | 15.1 (≈ 32.8 µM) | 15.5 (≈ 33.8 µM) | 
CC(=O)N1N=C(c2ccccc2)OC1c1cn(S(=O)(=O)c2cccc([N+](=O)[O-])c2)c2ccc(C#N)cc12 (stereo not drawn) [3p′] | 135 (≈ 262 µM) | 63.8 (≈ 124 µM) | 
CC(=O)N1N=C(c2ccccc2)OC1(C)c1cn(S(=O)(=O)c2ccc(Cl)cc2)c2ccc(C#N)cc12 (stereo not drawn) [3a′, 2-Methyl-2-(N-p-chlorobenzenesulfonyl-5-cyanoindol-3-yl)-3-N-acetyl-5-phenyl-1,3,4-oxadiazolines] | 113 (≈ 218 µM) | 3.63 (≈ 6.99 µM) | 128 to 130
CC(=O)N1N=C(c2ccccc2)OC1c1cn(S(=O)(=O)c2ccc(Cl)cc2)c2cc(C)ccc12 (stereo not drawn) [3l′] | 182 (≈ 368 µM) | 57.5 (≈ 116 µM) | 
COc1ccc(S(=O)(=O)n2cc(C3OC(c4ccccc4)=NN3C(C)=O)c3ccccc32)cc1 (stereo not drawn) [3m′] | 12.3 (≈ 25.9 µM) | 22.5 (≈ 47.3 µM) | 
COc1ccc(S(=O)(=O)n2cc(C3OC(c4ccccc4)=NN3C(C)=O)c3ccc(C)cc32)cc1 (stereo not drawn) [3n′] | 11.2 (≈ 22.9 µM) | 16.6 (≈ 33.8 µM) | 
CC(=O)N1N=C(c2ccccc2)OC1c1cn(S(=O)(=O)c2cccc([N+](=O)[O-])c2)c2ccccc12 (stereo not drawn) [3f′] | 43.5 (≈ 88.6 µM) | 1.79 (≈ 3.65 µM) | 
CC(=O)N1N=C(c2ccccc2)OC1c1cn(S(=O)(=O)c2ccc(C)cc2)c2ccc(C#N)cc12 (stereo not drawn) [3o′] | 152 (≈ 313 µM) | 18.1 (≈ 37.4 µM) | 
CC(=O)N1N=C(c2ccccc2)OC1c1cn(S(=O)(=O)c2cccc([N+](=O)[O-])c2)c2cc(C)ccc12 (stereo not drawn) [3i′] | 20.2 (≈ 40 µM) | 0.51 (≈ 1.01 µM) | 
CC(=O)N1N=C(c2ccccc2)OC1(C)c1cn(S(=O)(=O)c2ccc(Cl)cc2)c2ccc([N+](=O)[O-])cc12 (stereo not drawn) [3c′, 2-Methyl-2-(N-p-chlorobenzenesulfonyl-5-nitroindol-3-yl)-3-N-acetyl-5-phenyl-1,3,4-oxadiazolines] | 53.4 (≈ 99.1 µM) | 6.01 (≈ 11.2 µM) | 108 to 110
CCC(=O)N1N=C(c2ccccc2)OC1c1cn(S(=O)(=O)c2ccc(C)cc2)c2ccccc12 (stereo not drawn) [3q′] | 78 (≈ 165 µM) | 3 (≈ 6.34 µM) | 
CC(=O)N1N=C(c2ccccc2)OC1c1cn(S(=O)(=O)c2ccc(C)cc2)c2cc(C)ccc12 (stereo not drawn) [3g′] | 80.8 (≈ 171 µM) | 22.5 (≈ 47.5 µM) | 
CC(=O)N1N=C(c2ccccc2)OC1c1cn(S(=O)(=O)c2ccc(Cl)c([N+](=O)[O-])c2)c2ccccc12 (stereo not drawn) [3h′] | 4.8 (≈ 9.14 µM) | 3.53 (≈ 6.72 µM) | 
CC(=O)N1N=C(c2ccccc2)OC1c1cn(S(=O)(=O)c2ccc(Cl)c([N+](=O)[O-])c2)c2cc(C)ccc12 (stereo not drawn) [3j′] | 2.26 (≈ 4.19 µM) | 12.4 (≈ 23 µM) | 
CC(=O)N1N=C(c2ccccc2)OC1(C)c1cn(S(=O)(=O)c2ccc(C)cc2)c2ccc([N+](=O)[O-])cc12 (stereo not drawn) [3b′, 2-Methyl-2-(N-p-methylbenzenesulfonyl-5-nitroindol-3-yl)-3-N-acetyl-5-phenyl-1,3,4-oxadiazolines] | 133 (≈ 256 µM) | 9.54 (≈ 18.4 µM) | 110 to 112
CC(=O)N1N=C(c2ccccc2)OC1c1cn(S(=O)(=O)c2ccc(Cl)cc2)c2ccccc12 (stereo not drawn) [3k′] | 16.6 (≈ 34.5 µM) | 19.4 (≈ 40.4 µM) | 
